{
  "source": "patent US11098083B2",
  "about": "“Peptide that regulates fat metabolism and method for regulating fat metabolism” (SHENZHEN INSTITUTES OF ADVANCED TECHNOLOGY, priority 2017, dated 2021)",
  "key": {"GPRC6A": {"target": "T1, GPRC6A (Homo sapiens, UniProt Q5T6X5)", "T1 construct": "expressed in transfected cells; host or cells: Hela cells (transfected with Lipofectamine 2000)", "T1 sequence (Q5T6X5 19-926)": "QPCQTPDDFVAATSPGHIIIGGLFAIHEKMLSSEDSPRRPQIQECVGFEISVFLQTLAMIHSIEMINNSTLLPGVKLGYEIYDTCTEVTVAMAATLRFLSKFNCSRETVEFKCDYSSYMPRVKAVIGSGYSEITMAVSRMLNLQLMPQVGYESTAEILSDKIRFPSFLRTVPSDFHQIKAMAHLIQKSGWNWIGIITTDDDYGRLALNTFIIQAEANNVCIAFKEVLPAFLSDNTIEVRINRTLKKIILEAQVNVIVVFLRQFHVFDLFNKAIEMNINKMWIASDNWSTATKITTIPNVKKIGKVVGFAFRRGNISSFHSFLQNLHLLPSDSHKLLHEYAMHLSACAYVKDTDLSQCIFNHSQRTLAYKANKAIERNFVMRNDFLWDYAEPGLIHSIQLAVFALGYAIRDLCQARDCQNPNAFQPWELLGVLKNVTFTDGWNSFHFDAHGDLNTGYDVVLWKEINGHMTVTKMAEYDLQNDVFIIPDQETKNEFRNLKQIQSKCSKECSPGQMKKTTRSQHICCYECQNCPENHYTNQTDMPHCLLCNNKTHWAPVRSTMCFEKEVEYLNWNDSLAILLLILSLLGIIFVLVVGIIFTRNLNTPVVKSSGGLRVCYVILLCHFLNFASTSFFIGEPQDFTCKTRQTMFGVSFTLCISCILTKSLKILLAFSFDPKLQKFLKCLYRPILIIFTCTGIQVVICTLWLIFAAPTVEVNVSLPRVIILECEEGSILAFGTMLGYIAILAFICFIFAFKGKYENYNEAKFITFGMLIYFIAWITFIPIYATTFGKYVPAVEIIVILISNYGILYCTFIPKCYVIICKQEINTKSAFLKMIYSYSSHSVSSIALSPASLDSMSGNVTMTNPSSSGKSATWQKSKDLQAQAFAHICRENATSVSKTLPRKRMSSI", "assay": "internalization of GPRC6A with Cy5-labelled peptides in hGPRC6A-overexpressed Hela cells", "type": "cell-based", "settings": "100 nM, 37° C., 30 minutes, confocal microscope, FIG. 6C", "description": "S230: Cy5-labelled OCN, Cy5-labelled hOCN22, and Cy5-labelled ISAP^2 may promote internalization of GPRC6A in the GPRC6A-overexpressed Hela cells.\nThe hGPRC6A-expressed Hela cell suspension may be plated at a density of 1.6×10^5/ml into a 24-well tray, and each well of the tray may be pre-placed with a gelatin-coated coverslip. 0.5 mL of media containing the cells may be added into each well, and the cells may be incubating at 37° C. and 5% CO2 for 24 hours. The cells may be starved for 4 h in serum-free media before any treatment, and then 100 nM of Cy5-OCN, 100 nM of Cy5-hOCN22, and 100 nM of Cy5-ISAP2 may be added to each well respectively to incubate with the cells at 37° C. for 30 minutes. The cells may be fixed by polyoxymethylene for 30 minutes. Afterwards, Triton X may be added to incubate with the cells for 10 minutes. The cells may be stained with 4′,6-diamidino-2-phenylindole (DAPI, Sigma) for 10 seconds as per manufacturer's instructions, and observed and photographed by a fluorescence confocal microscope."}, "wild-type C57BL/6 mice": {"system": "wild-type C57BL/6 mice", "assay": "gavage of ISAP4, ISAP5, ISAP6: intestinal absorption of fat (olive oil) in normal mice", "type": "in vivo", "settings": "gavage 2 pmol/g daily one week, day 8 olive oil 200 μl, compared with saline control group, FIG. 9", "description": "S410: effects of acute gavage of ISAP4, ISAP5, and ISAP6 on intestinal absorption of fat in normal mice may be studied.\n15 male wild-type C57BL/6 mice of 6 weeks old may be divided into 5 groups, 3 in each group. There may be 3 experimental groups, and the mice in the 3 experimental groups may be administered with ISAP4, ISAP5, and ISAP6 at 2 pmol/g of body weight respectively. The mice in two control groups may be gavaged with an equal volume of normal saline daily for one week. On the 8th day of the experiment, 30 minutes after gavage of ISAP4, ISAP5, ISAP6 and normal saline respectively, the mice in the three experimental groups may be gavaged with 200 μl of sterilized olive oil, the mice in one of the control groups may also be intragstrically administered with 200 μl of sterilized olive oil to be a saline control group, and the mice in the other one of the control groups may further be gavaged with 200 μl of normal saline to be a negative control group. After 50 minutes, each mouse may be euthanized using 95% CO2 and dissected to obtain small intestines. The jejunum near the duodenum may be frozen and sliced, stained with oil red O, and counterstained with hematoxylin. An oil red O-positive area may be quantified by the ImageJ software under double-blind conditions and a ratio of the oil red O-positive area to a total area of the intestinal villi may be calculated. Statistical analysis may be performed to compare with the mince in the saline+olive oil group. ***: p<0.001. N=3.\nThe oil red O-positive area may be quantified by the ImageJ software under double-blind conditions and the ratio of the oil red O-positive area to the total area of the intestinal villi may be calculated. […] Meanwhile, referring to the sequence comparison shown in FIG. 8, it can be seen that SEQ ID NO. 12: PVPYPDPLEP, SEQ ID NO. 15: SVPSPDPLEP, SEQ ID NO. 13: PYPDPLEP and SEQ ID NO. 16: PSPDPLEP are highly similar in sequence, and these sequences may be very conservative in various species. […]"}, "HFD mice [1]": {"system": "HFD mice", "assay": "gavage of peptides in HFD mice: triglyceride in feces, week 7", "type": "in vivo, C57BL/6 mice", "settings": "gavage 2 pmol/g, feces of week 7, compared with HFD control group, FIG. 7B", "description": "Feces of each mouse may be collected in week 7, baked at 60° C. for 3 days to ensure complete dryness. Then, 1 mg of the feces may be collected and soaked in 1 ml of a mixed solution consisting of chloroform and methanol in a ratio of 2:1. The soaked feces may then be disrupted with a tissue homogenizer and centrifuged to obtain a supernatant. The supernatant may be detected for triglyceride by the Roche blood biochemical analyzer. Experimental results are shown in FIG. 7B. **: P<0.01, ***: P<0.001.\n(§1) Feces of the mice may be collected in the 7th week of the experiment and baked at 60° C. for 3 days to ensure complete dryness. Then, 1 mg of the feces may be weighed and soaked in 1 ml of a mixed solution containing chloroform and methanol in a ratio of 2:1. The feces with the mixed solution may be disrupted by a tissue homogenizer and centrifuged to obtain a supernatant. The supernatant may be detected for triglyceride by the Roche blood biochemical analyzer.\nas §1, with “2:1.The” for “2:1. The”\nas §1, with “each mouse” for “the mice”, “experiment,” for “experiment”, “dryness.” for “dryness. Then,”, “in” for “with”"}, "HFD mice [2]": {"system": "HFD mice", "assay": "gavage of peptides in HFD mice for 7 weeks: body weight", "type": "in vivo, C57BL/6 mice", "settings": "gavage 2 pmol/g of body weight for 7 weeks, compared with HFD control group, FIG. 7A", "description": "Six-week-old male wild-type C57BL/6 mice may be divided into 6 groups, 6 mice in each group. Group #1 may be provided with ND, and groups #2 to #6 may be provided with HFD. Group #2 may be treated as a HFD control group. Groups #3 to #6 may be experimental groups, and mice ingroups #3 to #6 may be gavaged with OCN, ISAP1, ISAP2, and ISAP3 respectively at 2 pmol/g of body weight for 7 weeks. Body weight of each mouse may be monitored and measured once a week.\nSix-week-old male wild-type C57BL/6 mice may be divided into 6 groups, 6 in each group. Group #1 may be provided with ND to be a ND control group, and groups #2 to #6 may be provided with HFD. Group #2 may be treated as a HFD control group. Groups #3 to #6 may be treated as experimental groups and may be gavaged with OCN, ISAP1, ISAP2, and ISAP3 respectively at 2 pmol/g of body weight daily for 7 weeks. Body weight may be monitored and measured once a week.\nSix-week-old male wild-type C57BL/6 mice may be divided into 6 groups, 6 in each group. Group #1 may be provided with ND to be a ND control group, groups #2 to #6 may be provided with HFD. Group #2 may be treated as a HFD control group. Groups #3 to #6 may be treated as experimental groups, and may be gavaged with OCN, ISAP1, ISAP2, and ISAP3 respectively at 2 pmol/g of body weight daily for 7 weeks. A body weight of each mouse may be monitored and measured once a week."}, "human GPRC6A (hGPRC6A)": {"target": "T2, human GPRC6A (hGPRC6A) (Homo sapiens, UniProt Q5T6X5)", "T2 construct": "expressed in transfected cells; host or cells: Hela cells (transfected with Lipofectamine 2000)", "T2 sequence (Q5T6X5 19-926)": "T1 sequence (Q5T6X5 19-926)", "assay": "fluorescent binding of OCN peptides to cell membranes of Hela cells with hGPRC6A overexpressed", "settings": "cell membranes of Hela cells with hGPRC6A overexpressed, FIG. 6B", "description": "S131: overexpression of hGPRC6A in Hela cells may be established.\n1) Cell plating: A Hela cell suspension may be plated at a density of 1.6×10^5 cells/mL into a 6-well tray with 2 mL of DMEM per well, incubating at 37° C. and 5% CO2 for 24 hours.\n2) A vector carrying hGPRC6A (pReceiver-M61) may be transfected into the Hela cells for overexpression, using Lipofectamine 2000 (Invitrogen) as per manufacturer's instructions, and media containing the vector may be replaced by normal media 4 hours later.\n3) After the transfection, the cells may be cultured in the normal media for another 48 hours, and the normal media may be discarded. The cells attached on a bottom of each well may be washed twice with sterile PBS, and 300 μl of TRIzol solution may be added into each well. Cellular RNAs may be extracted as per RNAiso Plus (TaKaRa) instructions, and after a DNase treatment, may be reversely transcribed into cDNAs using DNAEngine and a SuperScript™ (Invitrogen, Canada) kit. The cDNAs may be used as a template, and real-time monitoring and analysis may be performed to fluorescent PCR products at various time points using a SYBR Green (Light Cycler Roche, Germany) method to detect expression levels of the hGPRC6A. […] The selected cell strain may then be detected for its gene expression by qPCR. […]"}},
  "note": "Ends that are not written are not given here.",
  "data": [
    {"substance": "Cy5-ISAP2: Cy-5-labeled SEQ ID NO.2 (ISAP2) (YLYQWLGAPVPYPDPLEP; also: Cy5 label, position not given here; listed as Homo sapiens)", "values": [
      {"measurement": "distribution of Cy5-labelled peptide (internalization)", "setting": "GPRC6A", "result": "distributed inside the cell"}
    ]},
    {"substance": "Cy5-OCN: Cy-5-labeled OCN (osteocalcin protein) (YLYQWLGAPVPYPDPLEPRREVCELNPDCDELADHIGFQEAYRRFYGPV; ends and bridges not checked; also: Cy5 label, position not given here; UniProt P02818 52-100, looked up) [reference compound]", "values": [
      {"measurement": "distribution of Cy5-labelled peptide (internalization)", "setting": "GPRC6A", "result": "distributed inside the cell"}
    ]},
    {"substance": "PDPLEP [ISAP6]", "values": [
      {"measurement": "absorption of olive oil in the mice (oil red O-positive area / total area of intestinal villi)", "setting": "wild-type C57BL/6 mice", "result": "effectively reduce the absorption of olive oil"}
    ]},
    {"substance": "PSPDPLEP [ISAP5]", "values": [
      {"measurement": "absorption of olive oil in the mice (oil red O-positive area / total area of intestinal villi)", "setting": "wild-type C57BL/6 mice", "result": "effectively reduce the absorption of olive oil"}
    ]},
    {"substance": "SVPSPDPLEP [ISAP4]", "values": [
      {"measurement": "absorption of olive oil in the mice (oil red O-positive area / total area of intestinal villi)", "setting": "wild-type C57BL/6 mice", "result": "effectively reduce the absorption of olive oil"}
    ]},
    {"substance": "YLYQWLGASVPSPDPLEP [ISAP2]", "values": [
      {"measurement": "content (level) of triglyceride in the feces", "setting": "HFD mice [1]", "result": "significantly increased"},
      {"measurement": "body weight", "setting": "HFD mice [2]", "result": "significant weight loss"},
      {"measurement": "ability of binding with cell membranes, compared with hOCN", "setting": "human GPRC6A (hGPRC6A)", "result": "consistent with that of hOCN"}
    ]},
    {"substance": "YLYQWLGASVPSPDPLEPR [ISAP3]", "values": [
      {"measurement": "content (level) of triglyceride in the feces", "setting": "HFD mice [1]", "result": "significantly increased"},
      {"measurement": "body weight", "setting": "HFD mice [2]", "result": "significant weight loss"}
    ]}
  ]
}
